# According to patent publication US7018828B1, “Microbial culture medium containing agar and iota carrageenan” (priority 2001, dated 2006):
# Experiments:
# [1] = Syneresis of agar-based media (Blood, Chocolate, MacConkey, Azide blood agar) after storage; assay type: physicochemical; conditions: 0.2% iota carrageenan plus 1 mM calcium chloride; each of four agars; 28 days at 5° C.
# Method: In a first example, the ability of iota carrageenan to stabilize agar-based media was assessed. The media chosen for this example were used in several of the embodiments of the agar-based media of the invention listed in this application. More specifically, in this example, Blood agar, Chocolate agar, MacConkey agar, and Azide blood agar were each prepared three different ways: (1) without any additions, to serve as a control, (2) with the addition of 0.2% (final concentration) Iota Carrageenan, and (3) with the addition of 0.2% Iota Carrageenan plus 1 mM Calcium chloride. These additions were made at time of hydration as described above, and prior to autoclaving. Following the sterilization step (autoclaving), the processes of preparing blood agar, chocolate agar and azide blood agar from the base media were performed using standard microbiology methods. Defibrinated sterile sheep red blood cells and sodium azide were two of the reagents used. The complete MacConkey medium was prepared using all three ways prior to autoclaving. Each of the twelve different media were dispensed at 50° C. into four polystyrene sterile T-flasks (25 cm^2) with tight-fitting screw caps and stored for 28 days at refrigerator temperature(5° C.), at which point the amount of water of syneresis was measured. […]
# [2] = Syneresis of Mueller-Hinton agar at various iota carrageenan concentrations with and without calcium; assay type: physicochemical; conditions: 1 mM calcium added; media with 0.4%, 0.6% and 0.8% iota carrageenan
# Method: In a second example, research was conducted to determine the ability of iota carrageenan to stabilize agar gels at a variety of concentrations of carrageenan with and without calcium. The results of this research are summarized in the tables of FIG. 41A entitled: “The Effect of Iota Carrageenan, Without Added Calcium, on Syneresis of Mueller-Hinton Agar,” and in FIG. 42A, entitled: “The Effect of Iota Carrageenan, with 1 mM added Calcium, on Syneresis of Mueller-Hinton Agar. The graphs associated with the above two figures found in FIG. 41B and 42B pictorially illustrate the syneresis-reducing-effect of iota carrageenan and the synergistic effects of adding calcium with certain concentrations of iota carrageenan
structure (smiles),measurement,setting,value
"[Ca+2].[Cl-].[Cl-] [calcium, Calcium chloride]","amount of water of syneresis, effect of adding calcium to carrageenan media",[1],further reduced the amount of syneresis
same,"syneresis of Mueller-Hinton agar, effect of adding calcium",[2],effect of adding calcium is also apparent
